From patent US20220323406A1, “METHODS AND COMPOSITIONS FOR DIFFERENTIATING STEM CELLS” (Massachusetts Institute of Technology, priority 2019, published 2022)

Columns and labels:
[1] = system: ENR+CD organoids (ISC to Paneth cell differentiation); test: Primary screen: CCh-stimulated lysozyme secretion LYZ.S, 2.5-D 384-well ENR+CD organoid differentiation; format: cell-based, mouse; details: primary screen
Text: (§1) High-throughput screening.

ENR+CD organoids = test: Primary screen: ATP (CellTiter-Glo 3D, CTG) cell number/viability, 2.5-D 384-well ENR+CD organoids;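 also: compounds given at plating and again on day 3 over a 6-day differentiation from ENR+CV stem-cell-enriched precursors, ATP measured on day 6, plate median as control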
[2] = system: ENR+CD organoids (ISC to Paneth cell differentiation); test: Primary screen: basal (non-stimulated) lysozyme secretion LYZ.NS, 2.5-D 384-well ENR+CD organoid differentiation; format: cell-based, mouse
Text: as §1

[3] = dose 0.08 uM, FC vs plate median
[4] = dose 0.40 uM, FC vs plate median
[5] = dose 2.00 uM, FC vs plate median
[6] = dose 10.00 uM, FC vs plate median
[7] = primary screen; dose 0.08 uM; FC vs plate median
[8] = primary screen; dose 0.40 uM; FC vs plate median
[9] = primary screen; dose 2.00 uM; FC vs plate median
[10] = primary screen; dose 10.00 uM; FC vs plate median
[11] = primary screen, dose 0.08 uM, standard z score
[12] = primary screen, dose 0.40 uM, standard z score
[13] = primary screen, dose 2.00 uM, standard z score
[14] = primary screen, dose 10.00 uM, standard z score
[15] = primary screen, standard z score, dose 0.08 uM
[16] = primary screen, standard z score, dose 0.40 uM
[17] = primary screen, standard z score, dose 2.00 uM
[18] = primary screen, standard z score, dose 10.00 uM

Compound	Dose.FC.LYZ.S ([1]; dose 0.08 uM) [log2 fold change]	Dose.FC.LYZ.S ([1]; dose 0.40 uM) [log2 fold change]	Dose.FC.LYZ.S ([1]; dose 2.00 uM) [log2 fold change]	Dose.FC.LYZ.S ([1]; dose 10.00 uM) [log2 fold change]	Dose.FC.CTG (ENR+CD organoids; primary screen, dose 0.08 uM) [log2 fold change]	Z.CTG (standard z score) (ENR+CD organoids; primary screen, dose 0.08 uM)	Dose.FC.CTG (ENR+CD organoids; primary screen, dose 0.40 uM) [log2 fold change]	Z.CTG (standard z score) (ENR+CD organoids; primary screen, dose 0.40 uM)	Dose.FC.CTG (ENR+CD organoids; primary screen, dose 2.00 uM) [log2 fold change]	Z.CTG (standard z score) (ENR+CD organoids; primary screen, dose 2.00 uM)	Dose.FC.CTG (ENR+CD organoids; primary screen, dose 10.00 uM) [log2 fold change]	Z.CTG (standard z score) (ENR+CD organoids; primary screen, dose 10.00 uM)	Dose.FC.LYZ.NS ([2]; primary screen, dose 0.08 uM) [log2 fold change]	Z.LYZ.NS (standard z score) ([2]; primary screen, dose 0.08 uM)	Dose.FC.LYZ.NS ([2]; primary screen, dose 0.40 uM) [log2 fold change]	Z.LYZ.NS (standard z score) ([2]; primary screen, dose 0.40 uM)	Dose.FC.LYZ.NS ([2]; primary screen, dose 2.00 uM) [log2 fold change]	Z.LYZ.NS (standard z score) ([2]; primary screen, dose 2.00 uM)	Dose.FC.LYZ.NS ([2]; primary screen, dose 10.00 uM) [log2 fold change]	Z.LYZ.NS (standard z score) ([2]; primary screen, dose 10.00 uM)	also measured
Cc1cc(-c2ccc(CC(=O)Nc3ccc(-c4cccnc4)cc3)cc2)ccn1 [Wnt-C59 (C59)]	−0.242	−0.281	−0.313	−0.301	−0.572	−1.366	−0.611	−1.461	−0.627	−1.498	−0.613	−1.465	−0.163	−1.424	−0.182	−1.588	−0.198	−1.724	−0.191	−1.666	
CN1CCCCC1Cn1cc(C(=O)c2cc([N+](=O)[O-])ccc2I)c2ccccc21 (stereo not drawn) [AM1241]	0.046	0.088	−0.017	−0.080	0.159	0.379	−0.054	−0.129	−0.062	−0.147	−0.001	−0.002	0.052	0.454	0.004	0.035	−0.014	−0.123	−0.003	−0.028	
CC(C)C[C@@H](C(=O)N[C@H](C(=O)OC1CCCC1)c1ccccc1)[C@H](O)C(=O)NO [Tosedostat (CHR2797)]	−0.027	−0.134	−0.128	−0.276	−0.097	−0.232	0.051	0.123	−0.201	−0.480	−0.468	−1.117	−0.002	−0.022	−0.106	−0.925	−0.050	−0.432	−0.172	−1.499	SSMD.CTG (ENR+CD organoids; Table 5A primary screen; strictly standardized mean difference; four lines per treatment = four doses, dose not given): −0.311
Nc1cccc2c1C(=O)N(C1CCC(=O)NC1=O)C2=O (stereo not drawn) [Pomalidomide]																					Dose.FC.LYZ.S [1, 3]: −0.028 log2 fold change; Dose.FC.LYZ.S [1, 4]: −0.082 log2 fold change; Dose.FC.LYZ.S [1, 5]: −0.115 log2 fold change; Dose.FC.LYZ.S [1, 6]: −0.205 log2 fold change; Dose.FC.CTG (ENR+CD organoids; [7]): 0.063 log2 fold change; Dose.FC.CTG (ENR+CD organoids; [8]): 0.224 log2 fold change; Dose.FC.CTG (ENR+CD organoids; [9]): −0.216 log2 fold change; Dose.FC.CTG (ENR+CD organoids; [10]): −0.305 log2 fold change; Z.LYZ.NS [2, 11]: −0.019; Z.LYZ.NS [2, 12]: −0.013; Z.LYZ.NS [2, 13]: −0.334; Z.LYZ.NS [2, 14]: −1.098; Dose.FC.LYZ.NS [2, 7]: −0.002 log2 fold change; Dose.FC.LYZ.NS [2, 8]: −0.001 log2 fold change; Dose.FC.LYZ.NS [2, 9]: −0.038 log2 fold change; Dose.FC.LYZ.NS [2, 10]: −0.126 log2 fold change
Cc1ccccc1C(=O)Nc1ccc(C(=O)N2CCCC(N(C)C)c3ccccc32)cc1 (stereo not drawn) [Mozavaptan]																					Dose.FC.LYZ.S [1, 3]: 0.086 log2 fold change; Dose.FC.LYZ.S [1, 4]: 0.165 log2 fold change; Dose.FC.LYZ.S [1, 5]: 0.106 log2 fold change; Dose.FC.LYZ.S [1, 6]: −0.270 log2 fold change; Dose.FC.CTG (ENR+CD organoids; [7]): 0.320 log2 fold change; Dose.FC.CTG (ENR+CD organoids; [8]): 0.235 log2 fold change; Dose.FC.CTG (ENR+CD organoids; [9]): 0.108 log2 fold change; Dose.FC.CTG (ENR+CD organoids; [10]): −0.336 log2 fold change; Z.LYZ.NS [2, 11]: 0.584; Z.LYZ.NS [2, 12]: −0.233; Z.LYZ.NS [2, 13]: 0.294; Z.LYZ.NS [2, 14]: −1.752; Dose.FC.LYZ.NS [2, 7]: 0.067 log2 fold change; Dose.FC.LYZ.NS [2, 8]: −0.027 log2 fold change; Dose.FC.LYZ.NS [2, 9]: 0.034 log2 fold change; Dose.FC.LYZ.NS [2, 10]: −0.201 log2 fold change
O=[N+]([O-])C=Cc1ccc2c(c1)OCO2																					Dose.FC.LYZ.S [1, 3]: 0.076 log2 fold change; Dose.FC.LYZ.S [1, 4]: 0.100 log2 fold change; Dose.FC.LYZ.S [1, 5]: 0.019 log2 fold change; Dose.FC.LYZ.S [1, 6]: −0.179 log2 fold change; Z.CTG (ENR+CD organoids; [11]): −0.037; Z.CTG (ENR+CD organoids; [12]): 0.146; Z.CTG (ENR+CD organoids; [13]): 0.148; Z.CTG (ENR+CD organoids; [14]): −0.469; Dose.FC.CTG (ENR+CD organoids; [7]): −0.016 log2 fold change; Dose.FC.CTG (ENR+CD organoids; [8]): 0.061 log2 fold change; Dose.FC.CTG (ENR+CD organoids; [9]): 0.062 log2 fold change; Dose.FC.CTG (ENR+CD organoids; [10]): −0.197 log2 fold change; Z.LYZ.NS [2, 11]: 0.499; Z.LYZ.NS [2, 12]: −0.088; Z.LYZ.NS [2, 13]: 0.347; Z.LYZ.NS [2, 14]: −1.307; Dose.FC.LYZ.NS [2, 7]: 0.057 log2 fold change; Dose.FC.LYZ.NS [2, 8]: −0.010 log2 fold change; Dose.FC.LYZ.NS [2, 9]: 0.040 log2 fold change; Dose.FC.LYZ.NS [2, 10]: −0.150 log2 fold change
COc1cc(-c2ncn(/C=C\C(=O)OC(C)C)n2)cc(C(F)(F)F)c1 [KPT-185]						0.277		0.248		−2.377		−2.041		−0.049		0.846		−1.820		−0.744	Dose.FC.LYZ.S (log2 fold change) ([1]; dose 0.08 uM): −0.015; Dose.FC.LYZ.S (log2 fold change) ([1]; dose 0.40 uM): 0.220; Dose.FC.LYZ.S (log2 fold change) ([1]; dose 2.00 uM): −0.322; Dose.FC.LYZ.S (log2 fold change) ([1]; dose 10.00 uM): −0.153; Dose.FC.CTG (log2 fold change) (ENR+CD organoids; primary screen, dose 0.08 uM): 0.116; Dose.FC.CTG (log2 fold change) (ENR+CD organoids; primary screen, dose 0.40 uM): 0.104; Dose.FC.CTG (log2 fold change) (ENR+CD organoids; primary screen, dose 2.00 uM): −0.995; Dose.FC.CTG (log2 fold change) (ENR+CD organoids; primary screen, dose 10.00 uM): −0.855; Dose.FC.LYZ.NS (log2 fold change) ([2]; primary screen, dose 0.08 uM): −0.006; Dose.FC.LYZ.NS (log2 fold change) ([2]; primary screen, dose 0.40 uM): 0.097; Dose.FC.LYZ.NS (log2 fold change) ([2]; primary screen, dose 2.00 uM): −0.209; Dose.FC.LYZ.NS (log2 fold change) ([2]; primary screen, dose 10.00 uM): −0.085
CNC(=O)c1cc(Oc2ccc(NC(=O)Nc3cc(C(C)(C)C)nn3-c3ccc4ncccc4c3)c(F)c2)ccn1 [DCC-2036 (Rebastinib)]	0.358	0.186	0.054	−0.244	0.216		0.218		−0.038		−0.322		0.259		0.128		0.073		−0.209		Z.CTG (ENR+CD organoids; [15]): 0.516; Z.CTG (ENR+CD organoids; [16]): 0.520; Z.CTG (ENR+CD organoids; [17]): −0.091; Z.CTG (ENR+CD organoids; [18]): −0.769; Z.LYZ.NS [2, 15]: 2.256; Z.LYZ.NS [2, 16]: 1.116; Z.LYZ.NS [2, 17]: 0.637; Z.LYZ.NS [2, 18]: −1.823
CCCC(=O)Nc1cccc(NC(=O)c2ccccc2Br)c1 [ML161]																					Dose.FC.LYZ.S [1, 3]: 0.017 log2 fold change; Dose.FC.LYZ.S [1, 4]: −0.027 log2 fold change; Dose.FC.LYZ.S [1, 5]: 0.024 log2 fold change; Dose.FC.LYZ.S [1, 6]: −0.066 log2 fold change; Z.CTG (ENR+CD organoids; [11]): 0.205; Z.CTG (ENR+CD organoids; [12]): 0.067; Z.CTG (ENR+CD organoids; [13]): 0.157; Z.CTG (ENR+CD organoids; [14]): −0.084; Dose.FC.CTG (ENR+CD organoids; [7]): 0.086 log2 fold change; Dose.FC.CTG (ENR+CD organoids; [8]): 0.028 log2 fold change; Dose.FC.CTG (ENR+CD organoids; [9]): 0.066 log2 fold change; Dose.FC.CTG (ENR+CD organoids; [10]): −0.035 log2 fold change; Z.LYZ.NS [2, 11]: 0.158; Z.LYZ.NS [2, 12]: −0.237; Z.LYZ.NS [2, 13]: 0.323; Z.LYZ.NS [2, 14]: −0.494; Dose.FC.LYZ.NS [2, 7]: 0.018 log2 fold change; Dose.FC.LYZ.NS [2, 8]: −0.027 log2 fold change; Dose.FC.LYZ.NS [2, 9]: 0.037 log2 fold change; Dose.FC.LYZ.NS [2, 10]: −0.057 log2 fold change
CCO[C@@H]1OC(=O)C[C@@H]1NC(=O)[C@@H]1CCCN1C(=O)[C@@H](NC(=O)c1ccc(N)c(Cl)c1)C(C)(C)C [VX-765]	0.091	0.032	0.061	0.174	0.154		0.232		0.165		0.254		0.043	0.371	0.036	0.317	0.059	0.516	0.022	0.190	
